{
  "source": "patent US20020182590A1",
  "about": "“Determining protein function in cell culture using RNA interference” (Vanderbilt University, priority 2001, published 2002)",
  "tested_on": "outwardly rectifying whole-cell currents of C. elegans body wall muscles",
  "experiment": "Whole-cell patch clamp recordings from cultured myo-3::GFP-expressing body wall muscle cells",
  "format": "cell-based",
  "conditions": "20 mM TEA, 3 mM 4-AP",
  "experimental": "FIGS. 3A-3C—Whole-cell recordings from C. elegans body wall muscles. […] Holding potential =−80 mV. […] Values are means±S.E. (n=8). […] Steady-state currents in the presence and absence of the drugs were measured at +80 mV. Drug effects were reversible. Values are means±S.E. (n=3-5).\nElectrophysiology. Cells are patch clamped using either the conventional whole-cell mode or perforated patch method. Initially, whole-cell measurements are performed using “physiological” pipette and bath solutions. The composition of C. elegans extracellular and intracellular fluids is currently unknown. Ascaris bath Ringer's (Richmond & Jorgenson, 1999) and conventional high K^+, low Na^+ and Cl^− pipette solutions are used. Standard voltage clamp protocols are used to assess the voltage-dependence of channels responsible for whole-cell currents.\nFor these experiments, the inventors mimicked the experimental protocol and bath and pipette solutions used recently for in vivo patch clamp studies of C. elegans body wall muscles (Richmond et al., 1999). When cultured body muscles were patch clamped with a pipette solution containing 120 mM KCl (Richmond et al., 1999), slowly inactivating, strongly outwardly rectifying currents were observed (FIG. 3). These currents were inhibited 40% by 20 mM TEA and 85% by 20 mM TEA plus 3 mM 4-aminopyridine (4-AP). […]",
  "data": [
    {"compound": "CC[N+](CC)(CC)CC", "note": "[TEA]", "values": [
      {"measurement": "reversibility of drug effects on currents", "value": "reversible"},
      {"measurement": "inhibition of whole-cell currents", "setting": "bath addition, steady-state currents at +80 mV, pipette 120 mM KCl", "value": 40, "unit": "%"}
    ]}
  ]
}
